Laboratory results taken from patent publication US20210069143A1, “LOW-ALCOHOL ANTIMICROBIAL COMPOSITION AND USE THEREOF” (Zurex Pharma, Inc., priority 2017, published 2021).

Legend:
[1] = Gamma radiation (25-40 kGy) and 5-month storage stability of composition components in HDPE bottles; assay type: physicochemical; conditions: for Concentration % Change, T = 0 vs. T = 5 Months / % Change (Unexposed vs. Exposed) / % LC, Exposed / % LC, Unexposed / % IPA, Exposed / % IPA, Unexposed: HDPE bottle
Experimental: An antimicrobial composition comprising isopropyl alcohol, citric acid, methyl paraben, propyl paraben, and methylene blue in HDPE bottles was exposed to 25-40 kGy radiation, and the amount of each component detected in the solution before and after radiation was tested. The testing was repeated after 5 months of storage. The results are presented in Tables 1 and 2, below, wherein “exposed” indicates the samples exposed to gamma radiation and “unexposed” indicates the samples that were not exposed to gamma radiation.

tested microorganisms = assay: Antimicrobial effect of components individually and together at various dilutions; assay type: cell-based; conditions: against most tested microorganisms
Experimental: The antimicrobial effect of various components of the composition of Example 1 were tested individually and together at various dilutions. The results are presented in FIG. 1A-1I, wherein shaded boxes indicate no significant response (<3 log10 reduction).

[2] = T = 0, exposed to 25-40 kGy gamma radiation
[3] = T = 0, not exposed to gamma radiation
[4] = T = 5 months, exposed to 25-40 kGy gamma radiation
[5] = T = 5 months, not exposed to gamma radiation

Row | Structure (SMILES) | change in amount of component upon gamma radiation ([1]; 25-40 kGy, HDPE bottles) | Concentration % Change, T = 0 vs. T = 5 Months ([1]; Exposed to gamma radiation) | % Change (Unexposed vs. Exposed) ([1]; T = 0) | % LC, Exposed [1, 2] | % LC, Unexposed [1, 3] | % Change (Unexposed vs. Exposed) ([1]; T = 5 months) | % LC, Exposed [1, 4] | % LC, Unexposed [1, 5] | Concentration % Change, T = 0 vs. T = 5 Months ([1]; Unexposed) | antimicrobial effect, alone (tested microorganisms; all tested concentrations) | share of component in solution degraded by gamma radiation ([1]; 25-40 kGy, HDPE bottles, accompanied by a color change) | % IPA, Exposed [1, 2] | % IPA, Unexposed [1, 3] | % IPA, Exposed [1, 4] | % IPA, Unexposed [1, 5] | antimicrobial effect, alone (tested microorganisms; 25% v/v strength solution)
1 | O=C(O)CC(O)(CC(=O)O)C(=O)O [Citric Acid, citric acid] | negligible | −4.0% | 1.1% | 97.4 % LC | 96.3 % LC | 0.4% | 93.5 % LC | 93.1 % LC | −3.3% |  |  |  |  |  |  | 
2 | O=C(O)CC(O)(CC(=O)O)C(=O)O [citrate] |  |  |  |  |  |  |  |  |  | little to no effect |  |  |  |  |  | 
3 | CN(C)c1ccc2nc3ccc(=[N+](C)C)cc-3sc2c1 [Methylene Blue, methylene blue] |  |  | −57.4% | 44.9 % LC | 105.5 % LC | −49.4% | 47.3 % LC | 93.4 % LC |  | little to no effect | approximately 50% |  |  |  |  | 
4 | CCCOC(=O)c1ccc(O)cc1 [Propylparaben, propyl-para-hydroxybenzoate] |  | 0.4% | 0% | 74.9 % LC | 74.9 % LC | −0.1% | 75.2 % LC | 75.3 % LC | 0.5% |  |  |  |  |  |  | 
5 | CC(C)O [IPA, isopropyl alcohol] | negligible | 0.7% | 1.2% |  |  | −0.1% |  |  | 1.6% |  |  | 68.6% | 68.1% | 69.1% | 69.2% | little to no effect
6 | COC(=O)c1ccc(O)cc1 [Methylparaben, methyl-para-hydroxybenzoate] |  | 0.7% | −0.4% | 74.5 % LC | 74.8 % LC | −0.3% | 75.0 % LC | 75.2 % LC | 0.5% |  |  |  |  |  |  | 
